Target: 5-hydroxytryptamine receptor 2A (Rattus norvegicus, UniProt P14842)
Experiment: Binding affinity towards 5-hydroxytryptamine 2A receptor sites by using [3H]ketanserin as radioligand

Chain of 5-hydroxytryptamine receptor 2A (P14842 whole entry): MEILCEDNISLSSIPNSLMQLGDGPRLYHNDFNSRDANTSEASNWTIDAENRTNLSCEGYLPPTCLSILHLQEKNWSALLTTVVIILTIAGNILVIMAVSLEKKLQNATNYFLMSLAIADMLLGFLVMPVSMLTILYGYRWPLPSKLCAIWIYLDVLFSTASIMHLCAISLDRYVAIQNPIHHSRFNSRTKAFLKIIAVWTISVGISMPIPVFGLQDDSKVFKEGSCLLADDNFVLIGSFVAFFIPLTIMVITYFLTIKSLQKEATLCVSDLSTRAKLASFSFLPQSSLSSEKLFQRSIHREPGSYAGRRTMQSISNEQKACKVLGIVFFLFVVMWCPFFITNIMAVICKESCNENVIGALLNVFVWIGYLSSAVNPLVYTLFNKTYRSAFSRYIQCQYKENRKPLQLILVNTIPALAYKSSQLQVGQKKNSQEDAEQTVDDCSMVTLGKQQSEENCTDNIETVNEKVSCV

In the case of CCCCCCc1cc(OC)c(CC(C)N)cc1OC (stereo unspecified), the Ki is reported as 2.5 nM.
For COc1ccc2c(c1)CCc1ccccc1C2CN (stereo unspecified), the Ki was 800 nM.
CCCCCCc1ccc2c(c1)CCc1ccccc1C2CN (stereo unspecified) showed a Ki of 630 nM.
COc1ccc2c(c1)Cc1ccccc1C2CN (stereo unspecified) gave a Ki of 7.5 nM.
In the case of NCC1c2ccccc2Cc2cc(CCCc3ccccc3)ccc21 (stereo unspecified), the Ki is reported as 3.2 nM.
For COc1cc(CC(C)N)c(OC)cc1CCCc1ccccc1 (stereo unspecified), the Ki was 10 nM.
COc1cc(OC)c(OC)cc1CC(C)N (stereo unspecified) showed a Ki of 1200 nM.
Compound NCC1c2ccccc2CCc2cc(CCCc3ccccc3)ccc21 (stereo unspecified) has a Ki of 81 nM.
With NCC1c2ccccc2Cc2cc(Br)ccc21 (stereo unspecified) the Ki was 1.3 nM.
CCCCCCc1ccc2c(c1)Cc1ccccc1C2CN (stereo unspecified) was tested, and the Ki was 7 nM.
For NCC1c2ccccc2CCc2cc(Br)ccc21 (stereo unspecified), the Ki was 37 nM.
